In article PMC2912279, “Calycosin Promotes Angiogenesis Involving Estrogen Receptor and Mitogen-Activated Protein Kinase (MAPK) Signaling Pathway in Zebrafish and HUVEC” (PLoS ONE, 2010):

Tests used:
[1] = system: subintestinal vein vessels (SIVs) of Tg(fli1:EGFP) zebrafish embryos; test: Blood vessel formation (SIV diameter/morphology) in Tg(fli1:EGFP) zebrafish embryos; assay type: in vivo; conditions: for angiogenic effect in SIVs, comparison with classical SERMs: raloxifene 10 µM, tamoxifen 3 µM, 17-βEstradiol 10 µM, calycosin 100 µM
Experimental: Zebrafish embryos were generated by natural pair-wise mating (3–12 months old) and were raised at 28.5°C in embyro water. Healthy, hatched zebrafish were picked out at 3 dpf and distributed into a 12-well microplate with 10 to 15 fish in each well. […] Embryos receiving DMSO (0.1%) served as vehicle controls and were equivalent to no treatment. Each experiment was repeated at least three times, with 30 embryos per group. VTKI was dissolved in DMSO as stock. Zebrafish embryos, Tg(fli-1:EGFP) and Tg(fli-1:nEGFP), were treated with inhibitor dissolved in embryo water from 3 dpf at the concentration indicated, controlled by DMSO treated embryos. Embryos were maintained using standard methods.
(§1) At 96 hpf, zebrafish were removed from microplates and observed for viability and gross morphological changes under a fluorescence microscope (Olympus IX81 Motorized Inverted Microscope, Japan) equipped with a digital camera (DP controller, Soft Imaging System, Olympus). Images were analyzed with Axiovision 4.2 and Adobe Photoshop 7.0.
Three random points in SIVs of Tg(fli1:EGFP) zebrafish embryos were chosen for vessel diameter measurement using AxiovisionLE 4.1. Numbers of endothelial cells in SIVs of Tg(fli1:nEGFP) zebrafish embryos were assessed by direct counting of the total number of green light points. Each green light point represents one endothelial cell (GFP+).

zebrafish embryos = test: Toxicity (highest non-toxic dose) in zebrafish embryos; assay type: in vivo; conditions: 72 hpf for 24 h
Experimental: (§2) Zebrafish embryos were generated by natural pair-wise mating (3–12 months old) and were raised at 28.5°C in embyro water. Healthy, hatched zebrafish were picked out at 3 dpf and distributed into a 12-well microplate with 10 to 15 fish in each well. Different concentrations (10, 30, 100 µM) of calycosin, raloxifene or tamoxifen solutions were then added to wells and incubated at 28°C for 24 h. Embryos receiving DMSO (0.1%) served as vehicle controls and were equivalent to no treatment. Each experiment was repeated at least three times, with 30 embryos per group. VTKI was dissolved in DMSO as stock. Zebrafish embryos, Tg(fli-1:EGFP) and Tg(fli-1:nEGFP), were treated with inhibitor dissolved in embryo water from 3 dpf at the concentration indicated, controlled by DMSO treated embryos. Embryos were maintained using standard methods.
as §1

HUVEC = HUVEC viability/proliferation by XTT assay; assay type: cell-based, Human; conditions: P<0.05
ERK1/2 = test: Western blotting of phospho-ERK1/2 in HUVEC; assay type: cell-based, Human
[2] = system: endothelial cells in SIVs of Tg(fli1:nEGFP) zebrafish embryos; test: Endothelial cell number in SIVs of Tg(fli1:nEGFP) zebrafish embryos; assay type: in vivo; conditions: calycosin 10, 30, 100 µM, 72 hpf for 24 h; SIV region
Experimental: as §2, with “Embryos were maintained using standard methods.” left out
as §1
Three random points in SIVs of Tg(fli1:EGFP) zebrafish embryos were chosen for vessel diameter measurement using AxiovisionLE 4.1. Numbers of endothelial cells in SIVs of Tg(fli1:nEGFP) zebrafish embryos were assessed by direct counting of the total number of green light points. […]

[3] = system: VEGFA, VEGFR1, Flk1A, Flk1B mRNA; test: mRNA expression in calycosin treated zebrafish by real-time PCR; assay type: in vivo; conditions: 100 µM, 6 h
Experimental: Zebrafish embryos at 72 hpf were treated with calycosin for 6 h. Total RNA was extracted from 30 zebrafish embryos of each treatment group using the RNeasy Mini Kit (Qiagen, USA) in accordance with the manufacturer's instructions. RNA was reverse transcribed to single-strand cDNA using SuperScript™ III First-Strand Synthesis System for RT–PCR (Invitrogen™, USA), followed by real-time PCR using the TaqMan® Universal PCR Master Mix and 250 nM custom TaqMan primers for zebrafish Flk1A, Flk1B, VEGFR1, VEGFA2 (Applied Biosystems, USA) in the ABI 7500 Real-Time PCR System (Applied Biosystems). The expression of Flk1A, VEGFA2 mRNA was normalized to the amount of bactin1, using the relative quantification method described by the manufacturer.
The zebrafish bactin1 primers were 5′-[…]-3′ (F) and 5′-[…]-3′(R) (Applied Biosystems, USA).
The zebrafish Flk1A (kdrl) primers were 5′- […]-3′ (F) and 5′- […]-3′(R) (Applied Biosystems, USA).
The zebrafish Flk1B (kdr) primers were 5′- […]-3′ (F) and 5′-[…]-3′(R) (Applied Biosystems, USA).
The zebrafish FLT1 primers were 5′-[…]-3′ (F) and 5′-[…]-3′(R) (Applied Biosystems, USA).
The zebrafish VEGFA2 primers were 5′-[…]-3′ (F) and 5′-[…]-3′ (R) (Applied Biosystems, USA).

ERα [4] = molecular target: T1, ERα (Homo sapiens, UniProt P03372); test: ER fluorescence polarization competitive binding assay (Fluormone ES2 displacement), ERα
T1 construct: purchased Invitrogen
T1 sequence (P03372 1-595): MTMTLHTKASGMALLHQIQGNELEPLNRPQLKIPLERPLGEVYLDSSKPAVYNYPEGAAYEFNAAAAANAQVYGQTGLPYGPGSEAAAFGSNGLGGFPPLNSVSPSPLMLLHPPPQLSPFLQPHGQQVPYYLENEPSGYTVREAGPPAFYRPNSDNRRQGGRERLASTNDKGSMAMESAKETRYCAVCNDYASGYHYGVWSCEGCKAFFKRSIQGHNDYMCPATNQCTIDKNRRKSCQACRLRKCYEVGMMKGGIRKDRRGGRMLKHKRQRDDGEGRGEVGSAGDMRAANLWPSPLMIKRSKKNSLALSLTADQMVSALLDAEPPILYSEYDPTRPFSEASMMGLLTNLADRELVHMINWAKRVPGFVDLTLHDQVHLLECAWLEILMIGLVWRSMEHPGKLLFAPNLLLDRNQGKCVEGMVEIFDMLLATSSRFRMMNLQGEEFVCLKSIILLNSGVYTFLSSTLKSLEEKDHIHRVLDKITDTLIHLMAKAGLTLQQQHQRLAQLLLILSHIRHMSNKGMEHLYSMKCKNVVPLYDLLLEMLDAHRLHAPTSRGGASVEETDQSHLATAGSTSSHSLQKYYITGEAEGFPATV
Experimental: (§3) The binding affinity of calycosin to ER-α and β was evaluated by the commercially available competitor assay (Invitrogen, Carlasbad, CA) according to the manufacturer's instructions. In brief, ER was added to fluorescently tagged ER ligand (Fluormone™ ES2) to form ER/Fluormone™ ES2 complexes with a high fluorescent polarization value. Displacement of fluorescently tagged ligands by unlabeled ligands decreased fluorescent polarization, resulting in a low value. In this system, changes in intensity of polarization reflect displacement of fluorescently tagged ligands. […] Plates were incubated at room temperature for 2 h and fluorescent polarization values measured using a Multilabel Counter (Perkin Elmer, Singapore).

ERβ [5] = molecular target: T2, ERβ (Homo sapiens, UniProt Q92731); test: biochemical
Experimental: as §3
Target sequence in this assay (Q92731 whole entry): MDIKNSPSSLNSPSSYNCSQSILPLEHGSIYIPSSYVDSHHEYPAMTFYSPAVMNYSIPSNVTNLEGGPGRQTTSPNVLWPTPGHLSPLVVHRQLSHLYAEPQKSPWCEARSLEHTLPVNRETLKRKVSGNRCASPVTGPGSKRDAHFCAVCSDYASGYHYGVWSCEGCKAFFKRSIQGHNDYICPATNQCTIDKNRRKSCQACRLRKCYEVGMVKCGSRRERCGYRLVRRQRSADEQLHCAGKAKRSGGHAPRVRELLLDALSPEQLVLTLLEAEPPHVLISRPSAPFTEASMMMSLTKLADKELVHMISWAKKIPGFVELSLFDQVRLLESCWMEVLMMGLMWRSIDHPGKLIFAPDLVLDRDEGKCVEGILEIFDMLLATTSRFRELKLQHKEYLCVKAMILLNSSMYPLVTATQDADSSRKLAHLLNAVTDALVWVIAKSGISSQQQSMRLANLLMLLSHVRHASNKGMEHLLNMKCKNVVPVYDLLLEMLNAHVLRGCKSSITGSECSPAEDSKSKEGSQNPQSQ

ERβ [6] = molecular target: T2, ERβ; conditions: percentage of maximum activation induced by 17-β-estradiol (10 µM)
Target sequence in this assay (Q92731 264-498 limits assumed): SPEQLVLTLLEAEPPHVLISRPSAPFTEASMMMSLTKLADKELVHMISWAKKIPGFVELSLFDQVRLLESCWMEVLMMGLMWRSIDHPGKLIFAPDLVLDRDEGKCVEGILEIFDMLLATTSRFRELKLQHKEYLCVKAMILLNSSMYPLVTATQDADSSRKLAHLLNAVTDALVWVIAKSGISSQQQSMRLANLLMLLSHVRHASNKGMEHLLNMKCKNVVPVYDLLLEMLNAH

ERβ [7] = molecular target: T2, ERβ
Target sequence in this assay (Q92731 264-498 limits assumed): as above

ERα [8] = molecular target: T3, ERα (Homo sapiens, UniProt P03372); test: GeneBLAzer β-lactamase reporter-gene assay, agonist activity, ERα-UAS-bla GripTite cells
T3 sequence (P03372 311-547 limits assumed): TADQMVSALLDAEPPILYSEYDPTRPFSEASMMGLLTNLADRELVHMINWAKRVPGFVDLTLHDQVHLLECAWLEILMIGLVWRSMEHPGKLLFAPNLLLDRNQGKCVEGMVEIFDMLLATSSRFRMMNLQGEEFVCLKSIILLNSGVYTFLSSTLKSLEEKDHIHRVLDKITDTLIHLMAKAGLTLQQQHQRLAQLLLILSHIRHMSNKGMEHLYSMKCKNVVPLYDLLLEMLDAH

ERα [9] = molecular target: T3, ERα; test: GeneBLAzer β-lactamase reporter-gene assay, antagonist activity against E2, ERα-UAS-bla GripTite cells; conditions: in presence of EC80 of 17-β-estradiol

## O=C(c1ccc(OCCN2CCCCC2)cc1)c1c(-c2ccc(O)cc2)sc2cc(O)ccc12 [raloxifene]
[1]; 72 hpf for 24 h
  angiogenic effect in SIVs, comparison with classical SERMs: no obvious changes
Zebrafish embryos
  highest non-toxic dose in zebrafish embryos: 10 µM

## CC/C(=C(\c1ccccc1)c1ccc(OCCN(C)C)cc1)c1ccccc1 [tamoxifen]
[1]; 72 hpf for 24 h
  angiogenic effect in SIVs, comparison with classical SERMs: no obvious changes
Zebrafish embryos
  highest non-toxic dose in zebrafish embryos: 3 µM

## C[C@]12CC[C@@H]3c4ccc(O)cc4CC[C@H]3[C@@H]1CC[C@@H]2O [E2, 17-β-estradiol]
[1]; 72 hpf for 24 h
  angiogenic effect in SIVs, comparison with classical SERMs: no obvious changes
Zebrafish embryos
  highest non-toxic dose in zebrafish embryos: 10 µM

## O=C(Nc1ccc(Cl)cc1)c1ccccc1NCc1ccncc1 [VRI]
[1]; VRI 100 ng/ml with calycosin 100 µM, 72 hpf for 24 h
  effect on calycosin-induced angiogenesis (SIV diameter and endothelial cell number): sufficient to reverse the calycosin-induced angiogenic effects to control levels
[1]; VRI 100 ng/ml, 72 hpf for 24 h
  effect on angiogenesis in zebrafish embryonic development, inhibitor alone, low concentration: no effect
[1]; VRI 1 µg/ml, 72 hpf for 24 h
  effect on angiogenesis in zebrafish embryonic development, inhibitor alone, high concentration: caused significant (P<0.001) defects in angiogenesis

## C[C@]12CC[C@@H]3c4ccc(O)cc4C[C@@H](CCCCCCCCC[S+]([O-])CCCC(F)(F)C(F)(F)F)[C@H]3[C@@H]1CC[C@@H]2O (stereo partly drawn) [ICI182, 780, reference compound]
HUVEC; pre-treatment with ER inhibitor 30 µM before calycosin 100 µM
  reduction of calycosin-induced HUVEC proliferation: 40%
ERK1/2; ICI182, 780 30 µM, calycosin 100 µM
  effect on calycosin-induced phosphorylation of ERK1/2: suppressed phosphorylation of ERK1/2 to control levels

## COc1ccc(-c2coc3cc(O)ccc3c2=O)cc1O [calycosin]
[1]; calycosin 10, 30, 100 µM, 72 hpf to 96 hpf, vs 0.1% DMSO control, P<0.05 and P<0.001
  diameter of SIVs: increased in a dose-dependent manner
[1]; 72 hpf for 24 h
  angiogenic effect in SIVs, comparison with classical SERMs: significant angiogenic effect
[2]
  increase in endothelial cells population compared with the control: approximately 1.5 times
[3]; embryos at 72 hpf, increase trend
  VEGFA mRNA expression level compared to the control: 1.2 fold
[3]; P<0.001
  Flk1A mRNA expression increase: 0.8 fold
  Flk1B mRNA expression increase: 0.9 fold
  VEGFR1 mRNA expression increase: 1.1 fold
ERα [4]; binding to ERα and ERβ
  IC50 value relative to that of E2 (higher): approximately 10^4 fold
ERα [4]; displacement of Fluormone ES2, 2 h room temperature
  IC50: 58.1 µM
ERβ [5]
  IC50: 32.4 µM
HUVEC; calycosin 100 µM, Fig. 9A experiment
  promotion of HUVEC proliferation: 67%
ERK1/2; calycosin 100 µM
  time at which phosphorylation of ERK1/2 reached a plateau: 30 to 60 min
ERK1/2; calycosin 10, 30, 100 µM for 30 min, maximum at 100 µM
  phosphorylation of ERK1/2, concentration dependence: enhanced in a dose-dependent manner
ERβ [6]
  maximum agonistic activity at ERβ: 8.6%
ERβ [7]
  reduction in IC50 value at ERβ compared with ERα: 2 fold
ERβ [7]; antagonist activity assay
  increase in maximal inhibition at ERβ compared with ERα: 2 fold
ERβ [7]; in presence of EC80 of 17-β-estradiol
  maximum inhibition against E2 at ERβ: 82%
ERα [8]
  EC50: 2.47 µM
ERα [8]; agonist activity assay
  increase in maximal activation at ERα compared with ERβ: 2 fold
  reduction in EC50 value at ERα compared with ERβ (ERα selectivity): 2 fold
ERα [8]; percentage of maximum activation induced by 17-β-estradiol (10 µM)
  maximum agonistic activity at ERα: 14.6%
ERα [9]
  maximum inhibition against E2 at ERα: 46%
